US20260062422A1 (Halda Therapeutics OpCo, Inc., priority 2022, published 2026)

Experiments:
[1] = test system: T-Rex 293 cell line SC3 cells having increased expression of androgen receptor protein due to exposure to doxycycline; test: Cellular growth inhibition, T-Rex 293 SC3 cells with doxycycline (androgen receptor induced), CellTiter-Glo; type: cell-based; details: 72 h, T-Rex 293 SC3 cells with 10 ng/mL doxycycline (increased androgen receptor expression)
Method in brief: (§1)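 Doxycycline-inducible androgen receptor T-Rex 293 clone SC3, seeded at 2500/well in phenol red-free DMEM with 10% charcoal-dextran FBS, without doxycycline or with 10 ng/mL to induce receptor. Compound added after 24 h (0.5% DMSO), 72 h at 37 °C; CellTiter-Glo 2.0 luminescence, GI50 by four-parameter fit.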

[2] = test system: T-Rex 293 cell line SC3 cells lacking increased expression of androgen receptor protein; test: Cellular growth inhibition, T-Rex 293 SC3 cells without doxycycline, CellTiter-Glo; type: cell-based; details: T-Rex 293 SC3 cells not exposed to doxycycline, CellTiter-Glo 2.0
Method in brief: as §1

VCaP cells = test: Cellular growth inhibition assay for VCaP cells, CellTiter-Glo; type: cell-based, human; details: Homo sapiens, VCaP, 72 h, 72 hours treatment, CellTiter-Glo 2.0
Method in brief: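 GI50 values come from four-parameter curve fits of luminescence data normalized to a zero baseline. Compound, in medium with 0.5% DMSO, was added one day after plating and left for 72 h before CellTiter-Glo 2.0 addition.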

T47D cells = test: Cellular growth inhibition assay for T47D cells, CellTiter-Glo; type: cell-based, human; details: 72 hours treatment, CellTiter-Glo 2.0 cell viability
Method in brief: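 Cells are plated at 3000/well and allowed 24 h before treatment. Test compound in medium containing 0.5% DMSO is then added, with DMSO-only wells as negative control, and plates are incubated 72 h at 37 °C. ATP luminescence (CellTiter-Glo 2.0) is then fitted to four parameters to derive GI50.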

Compound | GI50 [1] | GI50 ([2]; 72 h) | GI50 (VCaP cells) | GI50 (T47D cells; Homo sapiens, T47D, 72 h) | GI50 ([2]; 72 hours) | GI50 (T47D cells)
CCNC(=O)C[C@@H]1N=C(c2ccc(OC3CC(OC4CCN(c5ncc(C(=O)N[C@H]6C(C)(C)[C@H](Oc7ccc(C#N)c(Cl)c7)C6(C)C)cn5)CC4)C3)cc2)c2c(sc(C)c2C)-n2c(C)nnc21 (some centres unmarked) [Compound I-72] | < 0.5 µM | 0.5 to 1.5 µM | < 0.5 µM | < 0.5 µM | – | –
Cc1sc2c(c1C)C(c1ccc(OC3CC(CC4CCN(c5ncc(C(=O)N[C@H]6C(C)(C)[C@H](Oc7ccc(C#N)c(Cl)c7)C6(C)C)cn5)CC4)C3)cc1)=N[C@@H](Cc1ncco1)c1nnc(C)n1-2 (some centres unmarked) [Compound I-189] | < 0.5 µM | > 3 µM | < 0.5 µM | < 0.5 µM | – | –
Cc1sc2c(c1C)C(c1ccc(C#C[C@H]3C[C@@]4(CCCN(c5ncc(C(=O)N[C@H]6C(C)(C)[C@H](Oc7ccc(C#N)c(Cl)c7)C6(C)C)cn5)C4)C3)cc1)=N[C@@H](C)c1nnc(C)n1-2 [Compound I-378] | < 0.5 µM | > 3 µM | < 0.5 µM | > 3 µM | – | –
Cc1sc2c(c1C)C(c1ccc(C(=O)N3CC[C@]4(CCCN(c5ncc(C(=O)N[C@H]6C(C)(C)[C@H](Oc7ccc(C#N)c(Cl)c7)C6(C)C)cn5)C4)C3)cc1)=N[C@@H](Cc1ncco1)c1nnc(C)n1-2 [Compound I-258] | < 0.5 µM | > 3 µM | > 3 µM | 1.5 to 3 µM | – | –
Cc1sc2c(c1C)C(c1ccc(C[C@H]3C[C@@H](OC4CCN(c5ncc(C(=O)N[C@H]6C(C)(C)[C@H](Oc7ccc(C#N)c(Cl)c7)C6(C)C)cn5)CC4)C3)cc1)=N[C@@H](Cc1ncco1)c1nnc(C)n1-2 [Compound I-426] | < 0.5 µM | > 3 µM | < 0.5 µM | < 0.5 µM | – | –
Cc1sc2c(c1C)C(c1ccc([C@H]3C[C@@H]([C@@H]4CCN(c5ncc(C(=O)N[C@H]6C(C)(C)[C@H](Oc7ccc(C#N)c(Cl)c7)C6(C)C)cn5)C4)C3)cc1)=N[C@@H](Cc1ncco1)c1nnc(C)n1-2 [Compound I-413] | > 3 µM | > 3 µM | > 3 µM | > 3 µM | – | –
Cc1sc2c(c1C)C(c1ccc(N3CCN(C(=O)c4ncc(C(=O)N[C@H]5C(C)(C)[C@H](Oc6ccc(C#N)c(Cl)c6)C5(C)C)cn4)CC3)cc1)=N[C@@H](Cc1ncco1)c1nnc(C)n1-2 [Compound I-340] | > 3 µM | > 3 µM | > 3 µM | 1.5 to 3 µM | – | –
Cc1sc2c(c1C)C(c1ccc(C[C@H]3C[C@H]([C@H]4CCCN(c5ncc(C(=O)N[C@H]6C(C)(C)[C@H](Oc7ccc(C#N)c(Cl)c7)C6(C)C)cn5)C4)C3)cc1)=N[C@@H](Cc1ncco1)c1nnc(C)n1-2 [Compound I-159] | > 3 µM | > 3 µM | > 3 µM | > 3 µM | – | –
CC[C@@H]1N=C(c2ccc(N3CC(CC4CCN(c5ncc(C(=O)N[C@H]6C(C)(C)[C@H](Oc7ccc(C#N)c(Cl)c7)C6(C)C)cn5)CC4)C3)cc2)c2c(sc(C)c2C)-n2c(C)nnc21 [Compound I-593] | < 0.5 µM | > 3 µM | < 0.5 µM | < 0.5 µM | – | –
Cc1sc2c(c1C)C(c1ccc(C(=O)N3CCC[C@@H](C(=O)c4ncc(C(=O)N[C@H]5C(C)(C)[C@H](Oc6ccc(C#N)c(Cl)c6)C5(C)C)cn4)C3)cc1)=N[C@H](Cc1ncco1)c1nnc(C)n1-2 [Compound I-364] | < 0.5 µM | > 3 µM | > 3 µM | > 3 µM | – | –
Cc1sc2c(c1C)C(c1ccc(N3CCC4(C3)CN(c3cnc(C(=O)N[C@H]5C(C)(C)[C@H](Oc6ccc(C#N)c(Cl)c6)C5(C)C)cn3)C4)cc1)=N[C@@H](C)c1nnc(C)n1-2 [Compound I-578] | > 3 µM | > 3 µM | < 0.5 µM | < 0.5 µM | – | –
CC[C@@H]1N=C(c2ccc(CC3CCC4(C3)CN(c3ncc(C(=O)N[C@H]5C(C)(C)[C@H](Oc6ccc(C#N)c(Cl)c6)C5(C)C)cn3)CCO4)cc2)c2c(sc(C)c2C)-n2c(C)nnc21 (some centres unmarked) [Compound I-612] | < 0.5 µM | – | 0.5 to 1.5 µM | – | 0.5 to 1.5 µM | 1.5 to 3 µM
Cc1sc2c(c1C)C(c1ccc(C[C@H]3CC[C@@H]4CN(c5ncc(C(=O)N[C@H]6C(C)(C)[C@H](Oc7ccc(C#N)c(Cl)c7)C6(C)C)cn5)CCN4C3)cc1)=C[C@H](Cc1ncco1)c1nnc(C)n1-2 [Compound I-306] | < 0.5 µM | < 0.5 µM | < 0.5 µM | < 0.5 µM | – | –
Cc1sc2c(c1C)C(c1ccc(CC3CCN(c4ncc(C(=O)N[C@H]5C(C)(C)[C@H](Oc6ccc(C#N)c(Cl)c6)C5(C)C)cn4)CC3)cc1)=NC1(CC1)c1nnc(C)n1-2 [Compound I-555] | < 0.5 µM | 0.5 to 1.5 µM | < 0.5 µM | > 3 µM | – | –
